Several values for one entry are separate records, joined by “and”; a condition that tells them apart may be missing. Equal entries are not always repeated. Where two headings read alike, the source gives them in different places.
What was measured:
TbHK1 [1] = target: T1, TbHK1 (Trypanosoma brucei brucei, UniProt Q38C42); test: TbHK1 coupled enzyme HTS assay (G6PDH coupled, bacterially expressed rTbHK1); format: biochemical; conditions: for Fold less potent upon resupply (TbHK1 IC50 versus cherry-picked compound): resupplied versus cherry-picked compound
Experimental: For purification of bacterially expressed TbHK1 (rTbHK1), a previously described protocol was modified to increase yield. Briefly, a starter culture of E. coli M15(pREP) harboring pQE30 (Qiagen, Valencia, CA) with the TbHK1 gene cloned in frame of a 6-His tagging sequence was grown in ECPM1 [9] and then inoculated into a 5 L bioreactor (Biostat B, B. Braun Biotech International, Allentown, PA) and grown at 37°C. At OD600 between 3–5, the culture was induced with IPTG (0.8 mM), grown without supplement O2 (37°C, 16 hr), and cells collected by centrifugation (5000×g, 20 min, 4°C). The pellet was resuspended in lysis buffer (50 mM NaPO4, pH 8.1, 5 mM glucose, 150 mM NaCl, and 0.1% Tween) and lysed by using a cell disruptor (Constant Cell Disruption Systems, Sanford, NC). The resulting supernatant was applied (5 ml/min) to a 50 ml ProBind column (Invitrogen, Eugene, OR) on a FPLC (GE Lifesciences, Piscataway, NJ) and protein eluted by gradient (5 to 250 mM imidazole) in lysis buffer. Fractions were screened using HK activity assays and Western blotting and those containing rTbHK1 were pooled, concentrated, and applied to a HiTrap SP HP column (GE Lifesciences, Piscataway, NJ).
TbHK1 assays were an adaptation of a coupled enzyme HK assay to a 384-well format, [10]. Briefly, test and control compounds (30 µM in 15 µL volume) were added to a 384 well black, opaque microtiter plate using a Velocity 11 V-prep (Santa Clara, CA) for a final test compound concentration of 10 µM. […] The 45 µL reaction mixture was incubated at RT for 2 hr and then quenched with 5 µL EDTA (500 mM). The resulting signal, which remained stable for up to 5 hr after addition of stop reagent, was collected on a Molecular Devices SpectraMax M5 (absorbance at OD340)(Sunnyvale, CA).

Leishmania promastigotes = test: Leishmania promastigote specificity assay; format: cell-based, L. major; conditions: 44 h
Experimental: Cell-based specificity assays were performed as previously described. Briefly, mammalian cell line and Leishmania promastigote assays were performed in final volumes of 25 µL using our previously described 384-well microtiter format. All mammalian cell lines were cultured and maintained in complete growth medium preparations according to ATCC specifications (ATCC, Manassas, VA). Leishmania promastigotes were cultured as previously described. […] Vehicle and positive controls were 1% and 10% DMSO, respectively. For mammalian cells, assay plates were incubated for 44–46 h at 37°C in the presence of 5% CO2 and for the Leishmania promastigotes, assay plates were incubated for 44 h at 28°C with 5% CO2. Five µL of CellTiter Blue reagent was added to each assay plate well and incubated for 2–4 h at 37°C with 5% CO2. Data were captured on a Molecular Devices SpectraMax M5 (excitation A560; emission A590).

[2] = tested on: BSF T. brucei parasites (cell line 90-13, a 427 strain); test: T. brucei BSF viability assay (CellTiter Blue); format: cell-based, Trypanosoma brucei; conditions: for Toxicity to BSF at 10 µM: cell density after 72 hr; for EC50: Trypanosoma brucei
Experimental: CellTiter Blue (Promega, Madison WI) was added (20 µl) and the plates incubated an additional 3 hr under standard culture conditions.

[3] = tested on: PF T. brucei parasites (29-13, a 427 strain); test: Procyclic form (PF) parasite growth assay; format: cell-based; conditions: Trypanosoma brucei, A-427, 48 h, read-out: % PF Growth Inhibition (10 µM)
Experimental: Plates were then incubated for 1 hr under standard culture conditions. Fluorescence of samples was then characterized as above.

[4] = target: T2, human HK 4 (human glucokinase, hGlk) (Homo sapiens, UniProt P35557); test: Specificity assay against human HK 4 (human glucokinase, hGlk); format: biochemical; conditions: for inhibition at 10 µM: read-out: % Inhibition of hGlck (10 µM)
T2 construct: His tag (from pQE30); made in house; host or cells: E. coli M15 (pREP)
T2 sequence (P35557 1-465): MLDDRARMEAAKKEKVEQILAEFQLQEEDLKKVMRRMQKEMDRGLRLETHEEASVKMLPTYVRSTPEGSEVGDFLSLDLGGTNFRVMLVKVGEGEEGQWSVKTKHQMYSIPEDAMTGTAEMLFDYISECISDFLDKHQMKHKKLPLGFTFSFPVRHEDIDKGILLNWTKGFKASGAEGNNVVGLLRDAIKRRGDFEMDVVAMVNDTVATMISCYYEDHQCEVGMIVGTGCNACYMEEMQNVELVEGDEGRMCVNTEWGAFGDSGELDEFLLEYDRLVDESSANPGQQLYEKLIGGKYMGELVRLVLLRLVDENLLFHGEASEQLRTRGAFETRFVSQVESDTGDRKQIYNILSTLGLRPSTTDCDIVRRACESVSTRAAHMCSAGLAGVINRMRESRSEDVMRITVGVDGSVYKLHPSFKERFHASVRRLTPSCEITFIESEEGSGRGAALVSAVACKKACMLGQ
Experimental: Additional specificity assays were performed using human HK 4 (human glucokinase, hGlk, GenBank accession no. BC001890) that was expressed from a cloned cDNA (OPEN Biosystems, Huntsville, AL) in pQE30.

TbHK1 [5] = target: T1, TbHK1; parameters: method as in Lyda and Morris, unpublished; conditions: previously identified inhibitor; ref Lyda and Morris, unpublished; cited from earlier work
[6] = tested on: cellular G6P levels in BSF parasites; test: Cellular G6P levels in BSF parasites grown with compound; format: cell-based, Trypanosoma brucei
[7] = target: T. brucei lysate-derived TbHK1 (Trypanosoma brucei brucei, UniProt Q38C42); test: Inhibition assay of lysate-derived TbHK; format: biochemical; conditions: read-out: IC50 against T. brucei lysate-derived TbHK1 enzymatic activity; 2×10^5 BSF cell equivalents, 15 min preincubation at RT
Experimental: (§1) Parasite lysates from BSF parasites were prepared by incubation (5 min on ice) of 1.5×10^7 cells in lysis buffer (0.1 M TEA, pH 7.4, and 0.1% Triton X-100) supplemented with 1 mM PMSF, 5 µg/ml leupeptin, and 100 µg/ml TLCK. In triplicate, cell equivalents (2×10^5) were incubated with increasing concentrations of inhibitor for 15 minutes at RT prior to initiation of the coupled reaction. In short, the 200 µl reactions included 50 mM TEA, pH 7.4, 33 mM MgCl2, 20 mM glucose, 5.25 mM ATP, 0.75 mM NADP, and 0.1 units of G6PDH, with kinetic analyses performed using KaleidaGraph 4.1 (Synergy Software, Reading, PA).

[8] = cited from earlier work
TbHK1 [9] = target: T1, TbHK1; test: Kinetic analysis of TbHK1 inhibition with respect to ATP (Lineweaver-Burk); format: biochemical
Experimental: as §1
Assays were performed as described for cell lystates (see Materials and Methods) with ATP concentrations varied.

[10] = promastigotes, read-out: L. major EC50
[11] = A-427, bloodstream form parasites, 3 days (72 hr), read-out: BSF EC50
[12] = procyclic form parasites, 10 µM, 2 days
[13] = resupplied compound, bacterially expressed TbHK1, read-out: IC50 (µM) Resupply
[14] = A-427, 72 h, read-out: BSF EC50 (µM)

T1 sequence (Q38C42 entry or part of it): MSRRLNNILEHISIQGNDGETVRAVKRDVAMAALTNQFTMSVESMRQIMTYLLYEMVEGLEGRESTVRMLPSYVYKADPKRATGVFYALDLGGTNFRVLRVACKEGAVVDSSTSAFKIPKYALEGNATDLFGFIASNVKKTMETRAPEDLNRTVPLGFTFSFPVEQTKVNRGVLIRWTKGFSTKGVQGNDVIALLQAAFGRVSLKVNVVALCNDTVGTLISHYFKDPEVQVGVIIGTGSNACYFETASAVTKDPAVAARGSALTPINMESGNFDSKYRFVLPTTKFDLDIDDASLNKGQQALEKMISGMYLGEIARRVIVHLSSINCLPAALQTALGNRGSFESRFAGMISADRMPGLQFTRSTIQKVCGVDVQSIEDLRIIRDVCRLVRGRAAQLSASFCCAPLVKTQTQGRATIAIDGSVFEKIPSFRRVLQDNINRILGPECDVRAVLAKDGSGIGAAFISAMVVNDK
T. brucei lysate-derived TbHK1, sequence (Q38C42 entry or part of it): as above

Structure (SMILES)	EC50 (Leishmania promastigotes; [10])	Toxicity to BSF at 10 µM [2]	EC50 [2, 11]	inhibition at 10 µM [3, 12]	inhibition at 10 µM ([4]; 10 µM compound)	IC50 (TbHK1 [1]; [13])	other results
O=c1c(O)c(-c2cc(O)c(O)c(O)c2)oc2cc(O)cc(O)c12 [myricetin, reference compound]							inhibition at 10 µM (TbHK1 [1]; 10 µM, LOPAC validation screen, duplicate, read-out: Inhibition of TbHK1 enzymatic activity at 10 µM (LOPAC screen)): ≥ 40%
C/C(=C/CCC(C)[C@H]1CC[C@@]2(C)C3=C(CC[C@]12C)[C@@]1(C)CCC(=O)C(C)(C)[C@@H]1CC3)C(=O)O (some centres unmarked) [SID 22401406]	> 12.5 µM	not toxic	> 10 µM	0%	0%		IC50 (TbHK1 [1]): 2.3 ± 0.3 µM; % Inhibition of hGlck (10 µM) ([4]; 10 µM compound): minimal impact on the enzyme
COC1=C/C(=C/C(C#N)=C2/NC3=C(CCCC3)S2)C=CC1=O [SID 17386310]	2.6 ± 0.1 µM		0.038 ± 0.0038 µM	50 ± 0.15%	70.3 ± 3.6%	33.6 ± 10.2 µM	Fold less potent upon resupply (TbHK1 IC50 versus cherry-picked compound) (TbHK1 [1]): 7.5 fold; % Inhibition of hGlck (10 µM) ([4]; 10 µM compound): more potent inhibitor
Cc1ccccc1-n1sc2cc(F)ccc2c1=O [SID 24785302]	1.9 ± 0.2 µM		0.042 ± 0.0028 µM	47 ± 0.15%	6.9 ± 4.2%	4.2 ± 1 µM	
O=c1c(O)c(-c2ccc(O)c(O)c2)oc2cc(O)cc(O)c12 [quercetin]							IC50 (TbHK1 [5]): ~85 µM
CCOC(=O)Cc1csc(-n2sc3ccccc3c2=O)n1 [SID 3716597]	> 12.5 µM	not toxic	> 10 µM	27 ± 0.08%	7.8 ± 7.1%	9.3 ± 0.3 µM	
COc1ccc(C(=O)Nc2cc(Cl)ccc2C(=O)O)cc1 [SID 24797131]	> 12.5 µM	not toxic	> 10 µM	0%	6.3 ± 8.8%	11.4 ± 3.2 µM	
O=c1c2ccccc2sn1-c1nccs1 [SID 24830882]					88.8 ± 4.9%		EC50 (Leishmania promastigotes; read-out: L. major EC50 (µM)): > 12.5 µM; EC50 [2, 14]: 0.83 ± 0.2 µM; IC50 (TbHK1 [1]): 16.9 ± 0.1 µM; inhibition at 10 µM [3]: 8.6 ± 0.03%
CCCCCCCCCCCNC(=O)c1ccoc1C [SID 14728414]	> 12.5 µM	not toxic	> 10 µM	0%	1.9 ± 7%	41.7 ± 3 µM	Fold less potent upon resupply (TbHK1 IC50 versus cherry-picked compound) (TbHK1 [1]): 6.6 fold; % Inhibition of hGlck (10 µM) ([4]; 10 µM compound): minimal impact on the enzyme
O=c1c2ccccc2sn1-c1ccccc1 [SID 17387000, 2-phenyl-1,2-benzisothiazol-3(2H)-one]							EC50 (Leishmania promastigotes; read-out: L. major EC50 (µM)): 1.9 ± 0.2 µM; EC50 [2, 14]: 0.03 ± 0.067 µM; Reduction in cellular G6P [6]: 29% and 18%; inhibition at 10 µM [3]: 48 ± 0.15%; inhibition at 10 µM [4]: 6.7 ± 9.4%
O=C(Cn1sc2ccccc2c1=O)NC12CC3CC(CC(C3)C1)C2 [SID 16952891]	> 12.5 µM		0.3 ± 0.079 µM	47 ± 0.15%	44.9 ± 9.9%	2.6 ± 0.2 µM	
O=c1c2ccccc2[se]n1-c1ccccc1 [Ebselen, 2-phenyl-1,2-benzisoselenazol-3(2H)-one, reference compound]	4.1 ± 0.4 µM		2.9 ± 0.28 µM	51 ± 0.16%	97.8 ± 0.1%	0.05 ± 0.03 µM	IC50 [7]: 0.43 ± 0.02 µM; Reduction in cellular G6P ([6]; 1 hour, 10 times the EC50 (30 µM ebselen, 1 µM SID 17387000), versus untreated parasites): 56%; Reduction in cellular G6P ([6]; 4 hours, 10 times the EC50 (30 µM ebselen, 1 µM SID 17387000), versus untreated parasites): 70%; Brain levels as percent of plasma levels [8]: 21%; Serum values ([8]; single oral dose (100 mg/kg)): 4 to 5 µM; Ki (TbHK1 [9]): 6.13 µM; Nature of TbHK1 inhibition (TbHK1 [9]; with respect to ATP): mixed inhibitors

From publication PMC2854128, “A Target-Based High Throughput Screen Yields Trypanosoma brucei Hexokinase Small Molecule Inhibitors with Antiparasitic Activity” (PLoS Neglected Tropical Diseases, 2010)
